These results are taken from patent US20100063048A1, “Remedy for angiospasm accompanying subarachnoid hemorrhage containing thrombin receptor antagonist as the active ingredient” (Eisai R&D Mangement Co., Ltd., priority 2004, published 2010).

“Also recorded” adds a separate entry of the source.

Test [1] deals with thrombin. Particulars: administration to a subarachnoid hemorrhage animal model; cited from earlier work.
Test [2] addresses T1, PAR1 (Oryctolagus cuniculus, UniProt G1TTP8).
T1 construct: from tissue; host or cells: rabbit basilar artery (E5555 co-injected with autologous blood into the cistern; artery rings tested ex vivo)
T1 sequence (G1TTP8 1-460): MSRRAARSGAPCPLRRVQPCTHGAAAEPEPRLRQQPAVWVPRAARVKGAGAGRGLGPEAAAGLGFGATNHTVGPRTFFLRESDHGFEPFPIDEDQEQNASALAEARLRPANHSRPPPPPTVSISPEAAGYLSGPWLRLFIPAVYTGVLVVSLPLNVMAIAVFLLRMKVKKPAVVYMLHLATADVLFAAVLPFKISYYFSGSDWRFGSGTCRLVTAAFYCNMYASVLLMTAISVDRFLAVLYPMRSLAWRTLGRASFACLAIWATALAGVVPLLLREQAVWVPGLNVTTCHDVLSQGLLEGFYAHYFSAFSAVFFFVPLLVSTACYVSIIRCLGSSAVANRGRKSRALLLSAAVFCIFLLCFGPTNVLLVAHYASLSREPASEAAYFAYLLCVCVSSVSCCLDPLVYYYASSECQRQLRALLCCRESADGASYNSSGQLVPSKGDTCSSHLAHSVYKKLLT
As to the kind of experiment: Effect of PAR1 antagonist on contractile response of rabbit basilar arteries to thrombin (rabbit double-hemorrhage SAH model). The test is classed as in vivo. As to the method:
(§1) First, 2.5 ml each of autologous arterial blood was injected into the cisterna magnas twice on Days 0 and 2. Hereinafter, this group is also referred to herein as the “SAH group”. Models injected with equal amounts of saline instead of autologous arterial blood constituted the control group. On Day 7, rabbits from each group were euthanized and endotheliums were removed from the dissected basilar arteries to produce ring preparations (500 μm in width) (FIG. 2). The endothelium-removed basilar artery ring preparations produced in this example were used to perform experiments on contractile response in the following examples.
(§2) Contractile responses to thrombin were determined for the rabbit basilar arteries from the control group and the SAH group. Following contractile response induced by 118 mM K+ depolarization stimulation, the basilar artery ring preparations were stimulated with thrombin. Thrombin is an endogenous ligand of PAR1.
Contractile responses of the rabbit basilar arteries to thrombin were determined for the control group (sham surgery group), the SAH group and the SAH group coexisting with the PAR1 antagonist. Stimulation was given in the same manner as in Example 3.
In this example, the “sham surgery group (sham)” (control rabbit) refers to those obtained by injecting 3 ml saline twice into rabbit cisterns on Days 0 and 2, the “SAH group”(subarachnoid hemorrhage model) refers to those obtained by injecting 3 ml autologous blood twice into rabbit cisterns on Days 0 and 2, and the “SAH+E5555 group” (E5555-administered subarachnoid hemorrhage model) refers to those obtained by injecting 3 ml autologous blood supplemented with 600 μg E5555 twice into rabbit cisterns on Days 0 and 2.
On Day 7, the basilar arteries were removed to assess contractile responses to 118 mM K+ and 1 unit/ml thrombin.
In the same manner as Example 10, contractile responses of the rabbit basilar arteries to thrombin were determined for the control group (the sham surgery group), the SAH group and the SAH group coexisting with the PAR1 antagonist.
In this example, 3 ml each of autologous blood supplemented with 60 ng, 600 ng, 6 μg or 60 μg of E5555 was injected twice into rabbit cistern on Days 0 and 2.

Test [3] has as its system rabbit basilar arteries. As to the kind of experiment: Effect of heparinized autologous blood on increased contractile response in SAH group. The test is classed as in vivo. Particulars: models injected twice with heparinized autologous blood (SAH+heparin). How it is done:
as §1
In order to find out the effect of heparin on this increase in the contractile response, an experiment was conducted according to the method of Example 1 using models that had been injected twice with heparinized autologous blood. Heparin forms a complex with anti-thrombin III and becomes an anticoagulant that inactivates blood coagulation factor.

For test [4], the system named is rabbit basilar arteries. Nature of the test: Contractile responses of endothelium-removed rabbit basilar artery ring preparations to thrombin / PAR1-AP. As to the method: as §1, §2
Same experiment as Example 3 was performed using PAR1-AP (PAR1-activating peptide) instead of thrombin.

For test [5], the system named is α toxin-skinned basilar arteries. Nature of the test: Contractile responses of α toxin-skinned basilar arteries to thrombin and PAR1-AP. Set-up: species or system rabbit. How it is done:
Alpha toxin is a substance that confers permeability to cell membrane. In a rabbit basilar artery that is treated with α toxin for permeabilization (hereinafter, also referred to as an “a toxin-skinned basilar artery”), contractile response associated with increase in calcium ion concentration and contractile response to GTPγS that activates G protein were measured.
Next, contractile responses of a toxin-skinned basilar arteries to thrombin and PAR1-AP were measured.

In the case of `N=C(N)c1ccc2cc(OC(=O)c3ccc(N=C(N)N)cc3)ccc2c1` [FUT-175], in test [1], the angiospasm entry is on record as “suppress angiospasm”.
As for `CCOc1cc2c(c(F)c1OCC)C(=N)N(CC(=O)c1cc(N3CCOCC3)c(OC)c(C(C)(C)C)c1)C2` [Formula E5555], the “contractile response of basilar arteries to 1 unit/ml thrombin” value in test [2] (SAH+E5555 (6 μg) group: autologous blood supplemented with 6 μg injected twice on Days 0 and 2, vs SAH group) is reported as “smaller than that for the SAH group”; in test [2] (SAH+E5555 (6 μg) group: autologous blood supplemented with 6 μg injected twice on Days 0 and 2, vs SAH group, listed as E5050), “significantly suppressed”; in test [2] (SAH+E5555 (60 μg) group: autologous blood supplemented with 60 μg injected twice on Days 0 and 2, vs SAH group), “significantly suppressed”; in test [2] (SAH+E5555 group: 3 ml autologous blood supplemented with 600 μg E5555 injected twice into cisterns on Days 0 and 2, arteries removed Day 7, n=3) it was “contraction by 1 unit/ml thrombin was small; also recorded: significantly suppressed the increased reactivity to thrombin”. For the same compound, the “dose of E5555 suppressing increased reactivity to thrombin caused by subarachnoid hemorrhage (dose-dependent)” value in test [2] (co-administration with autologous blood, 60 ng to 60 μg tested, 1 unit/ml thrombin) is given as at least 60 ng.
For the compound anti-thrombin III, the angiospasm entry in test [1] is given as “suppress angiospasm”.
In the case of heparin, the “increasement in the contractile response to PAR1-AP” value in test [3] was “decreased significantly”. In addition, the “contractile response to thrombin” value in test [3] (thrombin 1 unit/nil) was 41.6±3.0%.
For the compound thrombin, the “concentration from which significant continuous contraction is induced” value in test [4] (SAH group) is at least 0.3 units/ml. In test [4] (SAH group, Day 7, 1 unit/ml thrombin or 100 μM PAR1-AP), the “reversibility of contractile response on washing” value was “not changed by washing”. Further, the “contractile force (% of 118 mM K+-induced contraction)” value in test [4] (SAH group, thrombin 1 unit/ml) is 73.1±2.8%; in test [4] (control group, thrombin 10 units/ml, mild temporary contraction), 21.3±1.2%. For the same compound, the contraction result in test [4] (control group, thrombin 1 unit/ml) was “did not induce contraction”. Further, the “effect on contractile response induced by calcium ion” value in test [5] (SAH group) is listed as “significantly increased”; in test [5] (control group) it was “had no effect”.
